{"source": "patent US8993635B2", "about": "“Method of increasing or maintaining the reproductive performance of sows” (Pork CRC Ltd, priority 2010, dated 2015)", "key": {"[1]": {"system": "Large White/Landrace parity 1 sows", "test": "Paylean (ractopamine) treatment during first lactation: maternal catabolism, post-weaning fertility, piglet growth, milk composition (Example 2)", "type": "in vivo, pig", "conditions": "for MMD loss in lactation (mm): maximum eye muscle depth; for Live weight loss in lactation (kg) Days 1-7 / Live weight loss in lactation (kg) Days 8-14 / Live weight loss in lactation (kg) Days 15-20: parity 1 sows, ractopamine 10 ppm days 1-13, 20 ppm from day 14 until mating; for 2nd litter size: Born alive / 2nd litter size: Total born: second litter; for Proportion sows exhibiting oestrus: within 10 days of weaning", "protocol": "This experiment was conducted at the University of Adelaide's Pig and Poultry Production Institute (PPPI) at Roseworthy, South Australia, with approval from the animal ethics committees of Primary Industries and Resources South Australia and The University of Adelaide. The experiment used sixty Large White/Landrace parity 1 sows, and was conducted in four replicates: replicates one and two were run in October and November 2006, respectively (spring); and replicates three and four were run in March and April 2007, respectively (autumn).\nAt entry into the farrowing shed, Sixty Large White/Landrace first parity sows were weighed, and P2 backfat and maximum eye muscle depth (MMD) measured. Sows were then stratified according to both liveweight and body composition and allocated to one of two treatment groups (n=30 sows). One group (Control) received a standard lactation diet (0.71 g avail. lys/MJ DE) throughout lactation, whilst the other group (Ractopamine) received the same standard lactation diet but supplemented with ractopamine at 10 parts per million (ppm) from days 1-13 of lactation and 20 ppm from day 14 of lactation until mating. Dietary treatments commenced on day 1 of lactation (Day 0=first 24 hours after farrowing). During lactation, the amount of feed offered each day was stepped up gradually, reaching 6 kg/day by day 7 of lactation, and was fed over three meals per day, with daily feed disappearance recorded for each sow. Weaning took place 21 days after farrowing, and between weaning and first Al sows received 3 kg/day of their respective diets. Sows were weighed, and P2 backfat and MMD measured on days 1, 7, 14 and 20 of lactation. Gilts were weighed prior to being fed, and P2 backfat and MMD were measured over the last rib 65 mm down from the vertebrae by an experienced commercial operator using a 3.5 MHz linear probe (Ausonics Impact). Litter size was standardised to 9 piglets within 24 hours of farrowing, with piglets receiving only maternal milk as their feed source and weighed on days 1, 7, 13 and 20 of their mother's lactation. Maternal milk samples were collected on days 3, 13 and 20 of lactation and analysed for fat and protein content.\nAfter weaning, sows were housed in groups of three or four. Boar exposure commenced on the fourth day after weaning, consisted of 15 minutes of full, physical boar contact and was conducted in a detection mating area (DMA). At their first oestrus after weaning, sows two artificial inseminations (AIs), 24 hours apart.\nAll Als took place in the DMA, with fence-line contact with a boar during the procedure. Inseminations were performed as per standard industry practice using disposable spirette catheters, with each insemination consisting of an 80 ml dose of fresh, extended semen (3×10^9 spermatozoa per inseminate; <4 days old). Semen used for this experiment was purchased from a commercial artificial insemination collection centre (SABOR Pty. Ltd, Clare, South Australia). Sows not detected in oestrus by 10 days after weaning were described as anoestrous."}, "[2]": {"system": "large white first parity sows", "test": "Supplementary ractopamine in the lactation diet: sow weight loss and subsequent reproductive performance (Example 1)", "type": "in vivo, pig", "description": "Sixty large white first parity sows were allocated to one of two treatment groups (n=30 sows/treatment). One group (CONT) received a standard lactation diet (0.71 g available lysine/MJ digestible energy (DE)) throughout lactation, whilst the other group (RAC) received the standard lactation diet supplemented with ractopamine at 10 ppm from d 1-13 of lactation and 20 ppm from d 14 of lactation until mating. The amount of feed offered each day was stepped up gradually, reaching 5 kg/day by d 4 of lactation, and maintained at this level for the rest of lactation. Sows were weighed and P2 backfat measured on d 1, 14 and 20 of lactation, the litter size standardised to 9 piglets within 24 hours of lactation. Sows were weaned on d 21 of lactation, with boar exposure commencing 4 d after weaning and sows artificially inseminated twice at their first oestrus post-weaning. Subsequent reproductive performance of all sows was recorded: weaning-to-oestrus interval (WOI) and second litter size. Sows failing to epress eostrus within 10 d of weaning were deemed to be anoestrus and allocated a nominal weaning-to-oestrus interval of 15 d. A general analysis of variance model was used to study the effects of RAC supplementation on sow weight loss during lactation and subsequent reproductive performance."}}, "note": "Marks after values point to notes of the source that are not given here.", "data": [{"smiles": "CC(CCc1ccc(O)cc1)NCC(O)c1ccc(O)cc1", "note": "(racemic) [Ractopamine, ractopamine]", "values": [{"measurement": "Proportion mated sows pregnant", "setting": "[1]; after two AIs at first oestrus post-weaning", "value": 0.91}, {"measurement": "P2 backfat loss in lactation (mm)", "setting": "[1]", "value": "lost significantly less"}, {"measurement": "P2 backfat loss in lactation (mm)", "setting": "[1]; listed as Ractoparnine", "value": "2.44^b mm"}, {"measurement": "MMD loss in lactation (mm)", "setting": "[1]", "value": "similar"}, {"measurement": "MMD loss in lactation (mm)", "setting": "[1]; listed as Ractoparnine", "value": 2.1, "unit": "mm"}, {"measurement": "Live weight loss in lactation (kg) Days 1-7", "setting": "[1]", "value": "similar"}, {"measurement": "Live weight loss in lactation (kg) Days 8-14", "setting": "[1]", "value": "similar"}, {"measurement": "Live weight loss in lactation (kg) Days 15-20", "setting": "[1]", "value": "lost significantly less"}, {"measurement": "Live weight loss in lactation (kg) Days 1-7", "setting": "[1]; listed as Ractoparnine", "value": 2.43, "unit": "kg"}, {"measurement": "Live weight loss in lactation (kg) Days 8-14", "setting": "[1]; listed as Ractoparnine", "value": 2.98, "unit": "kg"}, {"measurement": "Live weight loss in lactation (kg) Days 15-20", "setting": "[1]; listed as Ractoparnine", "value": "0.66^b kg"}, {"measurement": "2nd litter size: Born alive", "setting": "[1]", "value": "tendency (P=0.064) for the number of piglets born alive-at the second litter to be higher"}, {"measurement": "2nd litter size: Total born", "setting": "[1]", "value": "numerical, but not significant, increase"}, {"measurement": "2nd litter size: Born alive", "setting": "[1]; listed as Ractoparnine", "value": "9.48**"}, {"measurement": "2nd litter size: Total born", "setting": "[1]; listed as Ractoparnine", "value": 9.66}, {"measurement": "Weaning-to-oestrus (d)", "setting": "[1]; sows not in oestrus within 10 days assigned nominal 15 days", "value": "similar"}, {"measurement": "Weaning-to-oestrus", "setting": "[1]; sows not in oestrus within 10 days assigned nominal 15 days, listed as Ractoparnine", "value": 6.39, "unit": "days"}, {"measurement": "Proportion sows exhibiting oestrus", "setting": "[1]", "value": "numerical, but not significant, reduction in the proportion of Control compared to Ractopamine sows"}, {"measurement": "Proportion sows exhibiting oestrus", "setting": "[1]; listed as Ractoparnine", "value": 0.95}, {"measurement": "weaning-to-oestrus interval (WOI)", "setting": "[2]; anoestrus sows allocated nominal 15 d", "value": "6.4 ± 0.63", "unit": "days"}, {"measurement": "Lactation weight loss (kg) Days 1-14", "setting": "[2]; first parity sows, ractopamine 10 ppm d 1-13, 20 ppm from d 14", "value": "4.6 ± 1.41", "unit": "kg"}, {"measurement": "Piglets born at second litter, Total born", "setting": "[2]; subsequent (second) litter", "value": "9.7 ± 0.54"}, {"measurement": "proportion of sows exhibiting oestrus within 10 d of weaning", "setting": "[2]; within 10 d of weaning", "value": "0.95±0.08"}]}]}
